Entries after “also recorded” stand apart in the source; their conditions may differ. Where two headings read alike, the source gives them in different places.
Columns and labels:
JCV Mad-4 [1] = assay: JCV VP1 late gene expression in COS-7 cells (immunofluorescence); type: cell-based; settings: 7 d.p.i.
Excerpt: FIG. 16 illustrates the effect of increasing concentrations of CMX001 on expression of JCV proteins. Indirect immunofluorescence of JCV-infected COS-7 cells treated with indicated concentrations of CMX001, fixed 7 d.p.i. and stained with rabbit anti-VP1 serum (red) for visualization of the late capsid protein VP1 and with Höchst 33342 dye to show DNA (blue). The merged pictures are shown in the right panel.
Cells were fixed with 4% p-formaldehyde (PFA) in phosphate-buffered saline, pH6.8 (PBS) at room temperature for 20 min and permeabilized with 0.2% Triton X-100 in PBS at room temperature for 10 min. After washing twice with PBS at room temperature for 5 min, PFA was quenched with 0.5 M NH4Cl in PBS at room temperature for 7 min followed washing twice with PBS at room temperature for 5 min. Blocking of unspecific binding sites was done with 3% milk in PBS at 37° C. for 15 min. Primary antibody (rabbit anti-VP1 1:300 in 3% milk PBS) was incubated at 37° C. for 45-60 min. Cells were washed twice with PBS on a shaker at room temperature for 5 min. Secondary antibody (chicken anti-rabbit Cy3 1:2000) and 5 μg/ml Höchst 33342 dye to stain DNA was given to the cells then incubated at 37° C. for 45-60 min. Cells were washed twice with PBS as before. Coverslips were mounted in NPropylgallat. […]

JCV Mad-4 [2] = assay: Extracellular JCV load in JCV-infected COS-7 cells (qPCR); type: cell-based
Procedure: COS-7 supernatants were harvested 5 […] post start of treatment with indicated CMX001 concentrations. JCV load was measured by qPCR and input virus subtracted. DNA load in untreated cells (5.04×10 E+9 geq/ml) was set as 100%. Replication of JCV is shown as percentage of untreated cells to determine the IC-50 and IC-90. […] Supernatants from CMX001-treated and untreated JCV-infected COS-7 cells were harvested at indicated timepoints after infection and JCV load measured by qPCR. Data are presented as JCV load in log geq/ml. COS-7 or astrocyte cells were infected at a confluence of 60-70% with JCV(Mad-4) at an estimated TCID50 of 0.2. After 2 h incubation at 37° C., supernatants were replaced with fresh medium without or with increasing concentration CMX001. […] JCV loads were quantified after DNA extraction from 100 ul cell culture supernatants and the Corbett X-tractor Gene and the Corbett VX reagents (Qiagen, Hombrechtikon, Switzerland). The real-time PCR protocol for detection of JCV DNA samples targets the JCV large T coding sequence and has been described elsewhere (5). To investigate the effect of CMX001 on JCV progeny, increasing concentrations of CMX001 were added at 2 h p.i. and supernatants harvested at 5 d.p.i. It was observed that CMX001 reduced the extracellular JCV load in a concentration dependent manner (FIG. 12).

RPTECs = assay: Inspection of RPTECs by phase contrast microscopy; type: cell-based, human; settings: 3 day exposure to CMX001 0.31 μM
BKV(Dunlop) = assay: Extracellular BKV load in supernatants of BKV-infected RPTECs (qPCR); type: cell-based
Procedure: For FIG. 1(a), RPTEC supernatants were harvested 72 h p.i. i.e. 70 h post start of treatment with indicated CMX001 concentrations. BKV load was measured by […] and input virus subtracted. DNA load in untreated cells (1.05E+09 Geq/ml) was set as 100%.
FIG. 5 illustrates the influence of CMX001 0.31 μM on BKV extracellular BKV load. […] Supernatants from CMX001-treated and untreated BKV-infected RPTECs were harvested at indicated timepoints after infection and BKV load measured by qPCR. Data are presented as BKV load in Geq/ml.
For FIG. […] Supernatants were harvested 72 h p.i. and extracellular BKV load measured by qPCR. Data are presented in percent of untreated cells set at 100%.
Primary human renal proximal tubule epithelial cells (RPTECs), BKV(Dunlop) and all methods as previously described by Bernhoff et al (See Bernhoff et al., Cidofovir inhibits polyomavirus BK replication in human renal tubular cells downstream of viral early gene expression, Am J Transplant 8, 1413-1422 (2008).) Only one exception, quantitative PCR (qPCR) to quantify intracellular or extracellular BKV DNA load was performed with a different primer/probe set also targeting the LTag gene (See Hirsch, et al., J. Prospective study of polyomavirus type BK replication and nephropathy in renal-transplant recipients, N Engl J. Med., 347, 488-496 (2002)). Before each experiment, CMX001 was freshly dissolved to 1 mg/ml in methanol/water/ammonium hydroxide (50/50/2). It was further diluted in RPTEC growth medium.
To investigate the effect of CMX001 on BKV progeny, increasing concentrations of CMX001 were added 2 h p.i. and supernatants harvested at 72 h p.i. It was observed that CMX001 reduced the extracellular BKV load in a concentration dependent manner (See FIG. 1 a). […] With CMX001 0.31 uM an approximately 60% decrease in BKV agnoprotein expressing cells was seen. The number of cells expressing LTag was less reduced but the signal intensity was lower than in untreated cells. […] The conclusion is that CMX001 reduced the expression of early and late BKV proteins and the production of extracellular progeny but also seemed to affect the proliferation rate of RPTECs at higher concentrations.

JC virus = assay: Antiviral activity against JC virus in COS-7 cells (qPCR, 5 days); type: cell-based, JCV(Mad-4)
Procedure: In order to test the ability of CMX001 to inhibit JC virus, COS-7 cells were infected with JCV(Mad-4) at an estimated TCID50 of 0.2. After 2 h incubation at 37° C., supernatants were replaced with fresh medium without or with increasing amounts of CMX001 and incubated for 5 days. JC virus was quantified by qPCR after DNA extraction.

[3] = JC polyomavirus, 120 h, JCV(Mad-4), 5 days

For `CCCCCCCCCCCCCCCCOCCCOP(=O)(O)CO[C@H](CO)Cn1ccc(N)nc1=O` [CMX001], which “JCV VP1 signal by immunofluorescence” value (JCV Mad-4 [1]; CMX001 1.25 μM) is on record?
Its value is “significant reduction”.

What about the “JCV VP1 positive cells by immunofluorescence” value (JCV Mad-4 [1]; CMX001 5 μM) of the same molecule?
The value was “essentially no VP1 positive cells could be observed”.

What about the “change in the JCV load over 7 days” value (JCV Mad-4 [2]; 5 nM CMX001, COS-7) of the same molecule?
The value was “less than 1 log”.

What about the IC50 (JCV Mad-4 [2]; 120 h, COS-7, day 5 p.i., viral input subtracted, read-out: inhibitory concentration IC-50 (extracellular JCV load)) of the same molecule?
Its IC50 is 150 nM.

And the IC90 (JCV Mad-4 [2]; 120 h, COS-7, day 5 p.i., viral input subtracted, read-out: inhibitory concentration IC-90 (extracellular JCV load))?
The IC90 was 600 nM.

What about the “reduction of JCV viral load” value (JCV Mad-4 [2]; CMX001 0.15 μM, day 5 p.i.) of the same molecule?
Its value is over 50%.

And the “IC-90 concentration lower than concentrations reported for CDV inhibition of JCV” value (JCV Mad-4 [2]; CMX001 0.6 μM, COS-7)?
Its value is 2 orders of magnitude.

And the “viral load at 7 d.p.i. relative to untreated cells at 3 d.p.i.” value (JCV Mad-4 [2]; CMX001 5 uM, COS-7)?
The value was 91%.

And the “signs of impaired viability” value (RPTECs)?
The value was “did not reveal any signs of impaired viability”.

What about the IC90 (BKV(Dunlop); Betapolyomavirus hominis, Epithelial cell, primary human renal proximal tubule epithelial cells (conclusion), read-out: IC90 against BK virus replication) of the same molecule?
The IC90 was 310 nM.

What about the “extracellular BKV load (timecourse)” value (BKV(Dunlop); CMX001 0.31 μM, 48 h p.i.) of the same molecule?
Its value is “only input virus could be detected; also recorded: only input was detectable”.

And the “BKV load in supernatants from treated cells” value (BKV(Dunlop); CMX001 0.31 μM, 72 h p.i.)?
Its value is 1.13×10^8 Geq/ml.

What about the “BKV load in supernatants lower than in untreated cells (timecourse)” value (BKV(Dunlop); CMX001 0.31 μM, 72 h p.i.) of the same molecule?
Its value is 84%.

What about the IC90 (BKV(Dunlop); RPTEC, RPTECs, added 2 h p.i., harvested 72 h p.i., viral input subtracted, read-out: inhibitory concentration IC90 (extracellular BKV load)) of the same molecule?
The IC90 was 310 nM.

What about the “effect of pre-treatment on BKV load 72 h p.i.” value (BKV(Dunlop); RPTECs treated for 4 hours, ending 20 hours before infection) of the same molecule?
The value was “hardly any effect; also recorded: did not inhibit BKV replication”.

And the “reduction of viral load by pre-treatment” value (BKV(Dunlop); RPTECs treated for 23 hours until one hour before infection, 72 h p.i.)?
The value was “about 50%”.

What about the EC50 (JC virus; [3]) of the same molecule?
Its EC50 is 150 nM.

And the EC90 (JC virus; [3])?
Its EC90 is 600 nM.

What about the “activity against JC virus” value (JC virus; in words) of the same molecule?
Its value is “active”.
